Laboratory results taken from patent US12643913B2, “Mcl-1 inhibitor formulations” (AMGEN INC., priority 2020, dated 2026).

Assays:
[1] = 2-stage micro-dissolution (faSSGF then faSSIF), amorphous vs crystalline hydrate; format: physicochemical
Protocol: A 2-stage micro-dissolution experiment was performed to compare the dissolution of the amorphous AMG 397 drug substance to the crystalline hydrate form of AMG 397, as shown in FIG. 5. […] Upon dilution with fasted simulated intestinal fluid (faSSIF, pH 6.0 after dilution) the concentration of the amorphous material was seen to drop before increasing over the next 10 minutes and reaching a plateau. No precipitation of the amorphous material was observed, and it maintained at 5× higher concentration than the crystalline hydrate form of AMG 397 for the duration of the experiment. […] Unlike the amorphous material no further dissolution occurred once the media was switched to faSSIF.

[2] = Pharmacokinetics after oral gavage to male beagle dogs with different pre-treatments (Amgen study 150528); format: in vivo; conditions: 3 mg/kg PO; for AUCt / Cl/F / Cmax / Tmax / T½: male beagle dogs
Protocol: The pharmacokinetics of AMG 397 were assessed following oral administration to male beagle dogs as either a suspension of the crystalline hydrate form of AMG 397 or an amorphous suspension in 2% HPMC, 0.01% Tween 80. The full protocol is described in Amgen study number 150528. The goal of this study was to determine if the amorphous material would lead to increases in bioavailability and if variability in dosing could be reduced. In addition, oncology patients could be receiving acid-reducing agents as co-medication, so it is important to determine if exposure is reduced with elevated stomach pH and if an amorphous formulation of AMG 397 could overcome the drug-drug interaction (DDI). For the studies below, Form 1 is the crystalline hydrate form of AMG 397 and amorphous is the amorphous form of AMG 397.
Briefly, during each phase five male beagle dogs were assigned to each group of the study. All animals were fasted for at least eight hours prior to dosing and through the first four hours of blood sample collection for each phase. Food was returned within 30 minutes following collection of the last blood sample at the four-hour collection interval. Each animal in Phase 1, received a single oral (PO) gavage dose of the appropriate test article formulation as outlined in the study design Table 6. Oral gavage dosing formulations were continuously stirred throughout dosing. The gavage tube was rinsed with approximately 10 mL of tap water following dosing (prior to removal of the gavage tube). Following each study phase a 7-day washout period was allowed prior to the dosing of the next phase. The same five dogs were assigned to either group 1 or group 2 formulations for the duration of the study.
Test Article Administration: A total of 10 male beagle dogs were initially assigned to study. All animals were fasted for at least eight hours prior to dosing and through the first four hours of blood sample collection for each phase, where applicable (food will be returned within 30 minutes following collection of the last blood sample at the four hour collection interval, where applicable). Total fasting time […] 24 hours.
(§1) Each animal in Phase 1, Groups 1 and 2 received a single oral (PO) gavage dose of the appropriate test article formulation as outlined in the following study design table. Oral gavage dosing formulations was continuously stirred throughout dosing. The gavage tube was rinsed with approximately 10 mL of tap water following dosing (prior to removal of the gavage tube). No pre-treatment will be required for Phase 1.
as §1, with “After a 7-day washout period, each” for “Each”, “2,” for “1,”, “land” for “1 and”, “were” for “was”, “Two hours prior to dosing, each animal received two 20 mg (40 mg total) oral tablets of famotidine followed by a 10 mL dose of deionized water.” for “No pre-treatment will be required for Phase 1.”
After another 7-day washout period, each animal in Phase 3, Groups land 2 received a single oral (PO) gavage dose of the appropriate test article formulation as outlined in the following study design table. Oral gavage dosing formulations were continuously stirred throughout dosing. The gavage tube was rinsed with approximately 10 mL of tap water following dosing (prior to removal of the gavage tube). Thirty minutes prior to dosing, each animal received an intramuscular dose of pentagastrin in phosphate buffered saline at a dose level of 0.006 mg/kg and a dose volume of 0.05 mL/kg.
After a final 7-day washout period, each animal in Phase 4, Groups 1 and 2 received a single oral (PO) gavage dose of the appropriate test article formulation as outlined in the following study design table. Oral gavage dosing formulations were continuously stirred throughout dosing. […]

[3] = Phase 2, famotidine pre-treatment (stomach pH ~6.5)
[4] = Phase 3, pentagastrin pre-treatment (stomach pH ~2.0)
[5] = Phase 4, pentagastrin pre-treatment + P-gp inhibitor GF120918

Concentration relative to the crystalline hydrate form ([1]; after dilution with faSSIF (pH 6.0), maintained for the duration of the experiment): 5 ×
Concentration relative to the crystalline hydrate form ([1]; simulated gastric fluid (faSSGF), after 20 minutes): ~8 ×
AUCt ([2]; Phase 1, no pre-treatment): 17.3 µM·h
Cl/F ([2]; Phase 1, no pre-treatment): 0.4 L/h/kg
Cmax ([2]; Phase 1, no pre-treatment): 0.79 µM
Tmax ([2]; Phase 1, no pre-treatment): 3.1 h
T½ ([2]; Phase 1, no pre-treatment): 18.4 h
AUCt [2, 3]: 21.1 µM·h
Cl/F [2, 3]: 0.22 L/h/kg
Cmax [2, 3]: 0.9 µM
Tmax [2, 3]: 8.1 h
T½ [2, 3]: 19.7 h
AUCt [2, 4]: 18 µM·h
Cl/F [2, 4]: 0.26 L/h/kg
Cmax [2, 4]: 0.78 µM
Tmax [2, 4]: 10.4 h
T½ [2, 4]: 18.3 h
AUCt [2, 5]: 26.0 µM·h
Cl/F [2, 5]: 0.26 L/h/kg
Cmax [2, 5]: 0.95 µM
Tmax [2, 5]: 12.4 h
T½ [2, 5]: 16.5 h
Effect of stomach pH on exposure ([2]; beagle dogs): not affected by stomach pH
Bioavailability relative to the crystalline hydrate form ([2]; stomach pH elevated, beagle dogs): 3.4 fold
Bioavailability relative to the crystalline hydrate form ([2]; stomach pH low, beagle dogs): 1.6 fold
Compound: CO[C@]1(CN2CCN3CCCC[C@@H]3C2)/C=C/C[C@H](C)[C@@H](C)S(=O)(=O)NC(=O)c2ccc3c(c2)N(C[C@@H]2CC[C@H]21)C[C@@]1(CCCc2cc(Cl)ccc21)CO3 [AMG 397 Amorphous]
